pIC50: −log10 of the molar value.
What was measured:
Experiment in all cases: Ellman assay, […] nm, head homogenate
Format in all cases: biochemical, Haematobia irritans
[1] = molecular target: T1, acetylcholinesterase (AChE), Ona field population; settings: 0.4 mM acetylthiocholine, pH 7.8 phosphate, 25 °C, 10 min preincubation; covalent; stated gain
T1 construct: gene Ace; native enzyme in homogenate of five pooled fly heads; mixed genotypes, G262A in a small part of the flies, other mutations not screened

[2] = molecular target: T2, acetylcholinesterase (AChE), Labelle field population; settings: 0.4 mM acetylthiocholine, pH 7.8 phosphate, 25 °C, 10 min preincubation; covalent
T2 construct: gene Ace; native enzyme in homogenate of five pooled fly heads

[3] = molecular target: T3, acetylcholinesterase (AChE), Kerrville susceptible strain; settings: 0.4 mM acetylthiocholine, pH 7.8 phosphate, 25 °C, 10 min preincubation; covalent
T3 construct: gene Ace; not purified; G262A absent in this strain

[4] = molecular target: T4, acetylcholinesterase (AChE), BTU field population; settings: 0.4 mM acetylthiocholine, pH 7.8 phosphate, 25 °C, 10 min preincubation; covalent
T4 construct: gene Ace; native enzyme in homogenate of five pooled fly heads; mixed genotypes, G262A in a small part of the flies, other mutations not screened

**Q.** What does the source list for CCOP(=O)(OCC)Oc1cc(C)nc(C(C)C)n1 [diazoxon]?
**A.** pIC50 [1]: 7.69; pIC50 [2]: 8.04; pIC50 [3]: 8.09; pIC50 [4]: 8.21

Source: publication PMC6023543, “Resistance to Permethrin, β-cyfluthrin, and Diazinon in Florida Horn Fly Populations” (Insects, 2018)
